Laboratory results: patent publication US20230049952A1, “METHODS AND COMPOUNDS FOR RESTORING MUTANT P53 FUNCTION” (PMV Pharmaceuticals, Inc., priority 2020, published 2023)

Test system: NF-κB signaling pathway in MT373 tumors
Experiment: MT373 syngeneic sarcoma model: mouse NF-κB signaling pathway profiling panel
Assay type: in vivo

CCn1c(C#CCNc2ccccc2)cc2cc(CNC3CCN(C)CC3)ccc21 [Compound 1, 1-Anilino-3-{1-ethyl-5-[(1-methyl-4-piperidylamino)methyl]-1H-indol-2-yl}-2-propyne]
Agt fold increase over or percent reduction vs vehicle control (150 mg/kg BIDx1, 24 h): 8.18 ± 30.61 fold or % | Akt1 fold increase over or percent reduction vs vehicle control (150 mg/kg BIDx1, 24 h): 17.84 ± 6.63 fold or % | Atf1 fold increase over or percent reduction vs vehicle control (150 mg/kg BIDx1, 24 h): 42.27 ± 2.47 fold or % | Atf2 fold increase over or percent reduction vs vehicle control (150 mg/kg BIDx1, 24 h): 24.19 ± 2.49 fold or % | Bcl2a1a fold increase over or percent reduction vs vehicle control (150 mg/kg BIDx1, 24 h): 39.52 ± 5.46 fold or % | Bcl2l1 fold increase over or percent reduction vs vehicle control (150 mg/kg BIDx1, 24 h): 1.43 ± 0.11 fold or % | Bcl3 fold increase over or percent reduction vs vehicle control (150 mg/kg BIDx1, 24 h): 1.29 ± 0.31 fold or % | Bcl10 fold increase over or percent reduction vs vehicle control (150 mg/kg BIDx1, 24 h): 38.94 ± 3.05 fold or % | Birc3 fold increase over or percent reduction vs vehicle control (150 mg/kg BIDx1, 24 h): 1.03 ± 0.07 fold or % | Card10 fold increase over or percent reduction vs vehicle control (150 mg/kg BIDx1, 24 h): 1.32 ± 0.33 fold or % | Card11 fold increase over or percent reduction vs vehicle control (150 mg/kg BIDx1, 24 h): 1.14 ± 0.14 fold or % | Casp1 fold increase over or percent reduction vs vehicle control (150 mg/kg BIDx1, 24 h): 14.78 ± 4.65 fold or % | Casp8 fold increase over or percent reduction vs vehicle control (150 mg/kg BIDx1, 24 h): 9.24 ± 3.65 fold or % | Ccl2 fold increase over or percent reduction vs vehicle control (150 mg/kg BIDx1, 24 h): 57.69 ± 14.13 fold or % | Ccl5 fold increase over or percent reduction vs vehicle control (150 mg/kg BIDx1, 24 h): 21.82 ± 7.86 fold or % | Cd27 fold increase over or percent reduction vs vehicle control (150 mg/kg BIDx1, 24 h): 1.11 ± 0.11 fold or % | Cd40 fold increase over or percent reduction vs vehicle control (150 mg/kg BIDx1, 24 h): 30.05 ± 5.34 fold or % | Cflar fold increase over or percent reduction vs vehicle control (150 mg/kg BIDx1, 24 h): 1.01 ± 0.08 fold or % | Chuk fold increase over or percent reduction vs vehicle control (150 mg/kg BIDx1, 24 h): 1.03 ± 0.07 fold or % | Crebbp fold increase over or percent reduction vs vehicle control (150 mg/kg BIDx1, 24 h): 1.07 ± 0.06 fold or % | Csf1 fold increase over or percent reduction vs vehicle control (150 mg/kg BIDx1, 24 h): 14.27 ± 12.28 fold or % | Csf2 fold increase over or percent reduction vs vehicle control (150 mg/kg BIDx1, 24 h): 61.29 ± 2.87 fold or % | Csf3 fold increase over or percent reduction vs vehicle control (150 mg/kg BIDx1, 24 h): 27.25 ± 12.00 fold or % | Egfr fold increase over or percent reduction vs vehicle control (150 mg/kg BIDx1, 24 h): 28.45 ± 5.44 fold or % | Egr1 fold increase over or percent reduction vs vehicle control (150 mg/kg BIDx1, 24 h): 37.93 ± 8.71 fold or % | Eif2ak2 fold increase over or percent reduction vs vehicle control (150 mg/kg BIDx1, 24 h): 1.05 ± 0.10 fold or % | Elk1 fold increase over or percent reduction vs vehicle control (150 mg/kg BIDx1, 24 h): 12.50 ± 9.71 fold or % | F2r fold increase over or percent reduction vs vehicle control (150 mg/kg BIDx1, 24 h): 40.30 ± 2.19 fold or % | Fadd fold increase over or percent reduction vs vehicle control (150 mg/kg BIDx1, 24 h): 5.03 ± 3.48 fold or % | Fasl fold increase over or percent reduction vs vehicle control (150 mg/kg BIDx1, 24 h): 31.85 ± 3.66 fold or % | Fos fold increase over or percent reduction vs vehicle control (150 mg/kg BIDx1, 24 h): 12.09 ± 14.97 fold or % | Hmox1 fold increase over or percent reduction vs vehicle control (150 mg/kg BIDx1, 24 h): 13.99 ± 4.70 fold or % | Icam1 fold increase over or percent reduction vs vehicle control (150 mg/kg BIDx1, 24 h): 1.20 ± 0.24 fold or % | Ifng fold increase over or percent reduction vs vehicle control (150 mg/kg BIDx1, 24 h): 35.82 ± 11.11 fold or % | Ikbkb fold increase over or percent reduction vs vehicle control (150 mg/kg BIDx1, 24 h): 1.13 ± 0.20 fold or % | Ikbke fold increase over or percent reduction vs vehicle control (150 mg/kg BIDx1, 24 h): 1.48 ± 0.37 fold or % | Ikbkg fold increase over or percent reduction vs vehicle control (150 mg/kg BIDx1, 24 h): 1.07 ± 0.09 fold or % | Il1a fold increase over or percent reduction vs vehicle control (150 mg/kg BIDx1, 24 h): 13.50 ± 23.10 fold or % | Il1b fold increase over or percent reduction vs vehicle control (150 mg/kg BIDx1, 24 h): 63.25 ± 18.78 fold or % | Il1r1 fold increase over or percent reduction vs vehicle control (150 mg/kg BIDx1, 24 h): 31.14 ± 6.16 fold or % | Il10 fold increase over or percent reduction vs vehicle control (150 mg/kg BIDx1, 24 h): 1.52 ± 0.15 fold or % | Irak1 fold increase over or percent reduction vs vehicle control (150 mg/kg BIDx1, 24 h): 1.93 ± 9.47 fold or % | Irak2 fold increase over or percent reduction vs vehicle control (150 mg/kg BIDx1, 24 h): 24.86 ± 5.53 fold or % | Irf1 fold increase over or percent reduction vs vehicle control (150 mg/kg BIDx1, 24 h): 4.44 ± 20.95 fold or % | Jun fold increase over or percent reduction vs vehicle control (150 mg/kg BIDx1, 24 h): 29.31 ± 10.13 fold or % | Lta fold increase over or percent reduction vs vehicle control (150 mg/kg BIDx1, 24 h): 12.59 ± 29.28 fold or % | Ltbr fold increase over or percent reduction vs vehicle control (150 mg/kg BIDx1, 24 h): 11.61 ± 7.41 fold or % | Map3k1 fold increase over or percent reduction vs vehicle control (150 mg/kg BIDx1, 24 h): 1.40 ± 0.14 fold or % | Mapk3 fold increase over or percent reduction vs vehicle control (150 mg/kg BIDx1, 24 h): 10.05 ± 3.02 fold or % | Myd88 fold increase over or percent reduction vs vehicle control (150 mg/kg BIDx1, 24 h): 1.33 ± 0.11 fold or % | Nfkb1 fold increase over or percent reduction vs vehicle control (150 mg/kg BIDx1, 24 h): 1.39 ± 12.08 fold or % | Nfkb2 fold increase over or percent reduction vs vehicle control (150 mg/kg BIDx1, 24 h): 1.01 ± 0.29 fold or % | Nfkbia fold increase over or percent reduction vs vehicle control (150 mg/kg BIDx1, 24 h): 3.07 ± 2.68 fold or % | Nod1 fold increase over or percent reduction vs vehicle control (150 mg/kg BIDx1, 24 h): 1.24 ± 0.24 fold or % | Raf1 fold increase over or percent reduction vs vehicle control (150 mg/kg BIDx1, 24 h): 11.54 ± 3.56 fold or % | Rel fold increase over or percent reduction vs vehicle control (150 mg/kg BIDx1, 24 h): 1.09 ± 0.06 fold or % | Rela fold increase over or percent reduction vs vehicle control (150 mg/kg BIDx1, 24 h): 1.02 ± 0.07 fold or % | Relb fold increase over or percent reduction vs vehicle control (150 mg/kg BIDx1, 24 h): 1.10 ± 0.14 fold or % | Ripk1 fold increase over or percent reduction vs vehicle control (150 mg/kg BIDx1, 24 h): 1.25 ± 0.04 fold or % | Ripk2 fold increase over or percent reduction vs vehicle control (150 mg/kg BIDx1, 24 h): 27.80 ± 7.83 fold or % | Slc20a1 fold increase over or percent reduction vs vehicle control (150 mg/kg BIDx1, 24 h): 29.02 ± 4.69 fold or % | Smad3 fold increase over or percent reduction vs vehicle control (150 mg/kg BIDx1, 24 h): 4.92 ± 19.78 fold or % | Stat1 fold increase over or percent reduction vs vehicle control (150 mg/kg BIDx1, 24 h): 1.17 ± 0.19 fold or % | Tbk1 fold increase over or percent reduction vs vehicle control (150 mg/kg BIDx1, 24 h): 6.71 ± 4.73 fold or % | Tlr1 fold increase over or percent reduction vs vehicle control (150 mg/kg BIDx1, 24 h): 1.17 ± 0.16 fold or % | Tlr2 fold increase over or percent reduction vs vehicle control (150 mg/kg BIDx1, 24 h): 4.13 ± 15.48 fold or % | Tlr3 fold increase over or percent reduction vs vehicle control (150 mg/kg BIDx1, 24 h): 1.08 ± 0.12 fold or % | Tlr4 fold increase over or percent reduction vs vehicle control (150 mg/kg BIDx1, 24 h): 1.11 ± 0.05 fold or % | Tlr6 fold increase over or percent reduction vs vehicle control (150 mg/kg BIDx1, 24 h): 1.04 ± 0.10 fold or % | Tlr9 fold increase over or percent reduction vs vehicle control (150 mg/kg BIDx1, 24 h): 1.33 ± 0.19 fold or % | Tnf fold increase over or percent reduction vs vehicle control (150 mg/kg BIDx1, 24 h): 1.84 ± 47.89 fold or % | Tnfaip3 fold increase over or percent reduction vs vehicle control (150 mg/kg BIDx1, 24 h): 3.01 ± 14.38 fold or % | Tnfrsf1a fold increase over or percent reduction vs vehicle control (150 mg/kg BIDx1, 24 h): 1.21 ± 0.13 fold or % | Tnfrsf1b fold increase over or percent reduction vs vehicle control (150 mg/kg BIDx1, 24 h): 1.23 ± 0.12 fold or % | Tnfrsf10b fold increase over or percent reduction vs vehicle control (150 mg/kg BIDx1, 24 h): 2.61 ± 0.31 fold or % | Tnfsf10 fold increase over or percent reduction vs vehicle control (150 mg/kg BIDx1, 24 h): 18.51 ± 14.05 fold or % | Tnfsf14 fold increase over or percent reduction vs vehicle control (150 mg/kg BIDx1, 24 h): 1.11 ± 0.17 fold or % | Tollip fold increase over or percent reduction vs vehicle control (150 mg/kg BIDx1, 24 h): 1.01 ± 0.06 fold or % | Tradd fold increase over or percent reduction vs vehicle control (150 mg/kg BIDx1, 24 h): 1.17 ± 0.08 fold or % | Traf2 fold increase over or percent reduction vs vehicle control (150 mg/kg BIDx1, 24 h): 8.21 ± 7.59 fold or % | Traf3 fold increase over or percent reduction vs vehicle control (150 mg/kg BIDx1, 24 h): 13.02 ± 10.57 fold or % | Traf5 fold increase over or percent reduction vs vehicle control (150 mg/kg BIDx1, 24 h): 21.79 ± 2.60 fold or % | Traf6 fold increase over or percent reduction vs vehicle control (150 mg/kg BIDx1, 24 h): 1.03 ± 0.16 fold or % | Zap70 fold increase over or percent reduction vs vehicle control (150 mg/kg BIDx1, 24 h): 1.01 ± 0.07 fold or % | Agt fold increase over or percent reduction vs vehicle control (150 mg/kg BIDx1, 48 h): 1.60 ± 0.41 fold or % | Akt1 fold increase over or percent reduction vs vehicle control (150 mg/kg BIDx1, 48 h): 4.50 ± 1.92 fold or % | Atf1 fold increase over or percent reduction vs vehicle control (150 mg/kg BIDx1, 48 h): 42.46 ± 1.99 fold or % | Atf2 fold increase over or percent reduction vs vehicle control (150 mg/kg BIDx1, 48 h): 30.02 ± 3.86 fold or %
